Biological target: Pin1 (Homo sapiens, UniProt Q13526)
Assay: SensoLyte Green fluorimetric PPIase activity assay, dose-response
Format: biochemical

Chain of Pin1 (Q13526 whole entry): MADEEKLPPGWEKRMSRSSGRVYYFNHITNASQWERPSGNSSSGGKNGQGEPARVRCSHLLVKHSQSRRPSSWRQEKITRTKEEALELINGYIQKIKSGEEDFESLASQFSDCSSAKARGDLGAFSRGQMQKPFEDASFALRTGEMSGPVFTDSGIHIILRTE

`CCOC(=O)CN1C(=O)c2ccc3c4c(ccc(c24)C1=O)C(=O)N(CC(=O)OCC)C3=O` [PiB] showed an EC50 of about 10 µM.
